Reference: patent US20040092438A1, “Gd3-synthesis inhibitors for treating neuropathological disorders” (priority 1999, published 2004)

Columns and labels:
[1] = tested on: GD3 levels in the ischemic hemisphere; assay: GD3 levels in brain after MCA occlusion (thin-layer chromatography); type: in vivo, mice (C57BL6 strain); settings: single i.p. 100 mg/kg with piperonyl butoxide 400 mg/kg, 15 min after MCA occlusion; 90-minute occlusion, 24-hour reperfusion
Method: (§3) This was done by pushing a siliconized nylon suture through the common carotid artery as far as the MCA and stopping the blood flow through the MCA. After 90 min, the thread was withdrawn and thus the blood circulation was restored. The animals were under deep anesthesia (ketamine and Rompun; each 150 mg/kg of bodyweight) and the rectal temperature was maintained at about 37° C. with heat lamps and a heated cushion throughout the operation. After an observation period of 24 hours, the animals were again anesthetized, and the brains were dissected after perfusion.
Thus, tissues and cells were disrupted by two freeze-thaw cycles. The polar lipids were extracted, and the gangliosides were chromatographed on silica gel plates 60 for high performance thin-layer chromatography (HPTLC) (Merck, Darmstadt, Germany), dried and visualized with resorcinol. […] For the immunostaining, the plates were coated with 0.5% poly(isobutyl methacrylate) in hexane, dried, incubated with the monoclonal antibody R24 (IgG3) directed against GD3 for 1 h, and read via the immunoperoxidase stain. The bands were then scanned and analyzed by densitometry using the AIDA-1000/1B image analyzer (Raytest Isotopenmessgerate, Straubenhardt, Germany).

focal cerebral ischemia = settings: single i.p. 100 mg/kg with piperonyl butoxide; p <0.007
Method: as §3
The stained sections were scanned directly (MCID-M4,3.0; Imaging Res. Inc.). […] The significance was determined by the Mann-Whitney test. […] Averaging took place with the Scion-Image b 3.b.

primary neurons [2] = assay: Oxygen/glucose deficiency in vitro, specific death of primary neurons; type: cell-based, mouse; settings: 80 nM added 48 h before 6-hour oxygen/glucose deficiency, then reperfusion; relative to ST8-Sc-treated neurons
Method: Neurons were obtained from transgenic mice whose acid sphingomyelinase had been inactivated (ASM^−/−; Hirunouchi, K., et al., Nature Genetics 10, 288-294 (1995)) and wild-type mice of the same generation (ASM^+/+). Primary neuron cultures were prepared from 15- to 17-day mouse fetuses as previously described by Dawson, T. M., et al, Ann. neurol. 30, 843-6 (1991). […] The cells were applied to polyornithine-coated 24-well plates (Sigma, Deisenhofen, Germany). After 4 days, the cells were treated with cytosine arabinoside (5 μM) for a further four days in order to inhibit the proliferation of non-neural cells. The cell cultures were then kept at 8% CO2 and 37° C. in MEM, 10% horse serum, 25 mM glucose and 2 mM L-glutamine in a humidity incubator. The neurons were allowed to mature in culture for at least 8 days before being used for the experiment. The proportion of glial cells in the culture was determined using an antibody directed against glial fibrillary acidic protein (GFAP) to be less than 10%. […]
(§1) The percentage of dead cells was determined by trypan blue exclusion and expressed as percentage of the specific death. This was calculated as follows:
(§2) % specific death=(detected death−spontaneous death)/(100−spontaneous death)×100

GD3 synthase = assay: GD3 levels in neurons after oxygen/glucose deficiency and reperfusion (thin-layer chromatography); type: cell-based, mouse; settings: 80 nM added 48 h before 6-hour oxygen/glucose deficiency, 24-hour reperfusion; relative to ST8-Sc-treated neurons
Method: The procedure for generating a combined oxygen/glucose deficiency was known per se (Kaku, D. A., et al., Brain Res. 554:344-7; Monyer, H. et al., Neuron 8, 967-73 (1992); with slight modifications). The culture medium was replaced by MEM, 1% horse serum and 2 mM L-glutamine. The cultures were kept in an anaerobic chamber which contained a gas mixture comprising […], 85% N2 and 5% CO2, at 37° C. and 100% humidity for 6 h. The oxygen/glucose deficiency was abolished by removing the cultures from the chamber and adding horse serum and glucose to a final concentration of 10% and 25 mM respectively. The cultures were then replaced in a humidity incubator containing 8% CO2 and atmospheric oxygen for a further 3 h, 18 h or 24 h. […]
GD3 was determined as previously described by De Maria, R., et al., Science 277, 1652-5 (1997). […] For the immunostaining, the plates were coated with 0.5% poly(isobutyl methacrylate) in hexane, dried, incubated with the monoclonal antibody R24 (IgG3) directed against GD3 for 1 h, and read via the immunoperoxidase stain. The bands were then scanned and analyzed by densitometry using the AIDA-1000/1B image analyzer (Raytest Isotopenmessgerate, Straubenhardt, Germany).

primary neurons [3] = assay: Neuronal death after addition of gangliosides to cortical neuron cultures; type: cell-based, mouse; settings: 24 h after addition of 500 μM (highest dose) to cortical neuronal cells
Method: Neurons were obtained from transgenic mice whose acid sphingomyelinase had been inactivated (ASM^−/−; Hirunouchi, K., et al., Nature Genetics 10, 288-294 (1995)) and wild-type mice of the same generation (ASM^+/+). Primary neuron cultures were prepared from 15- to 17-day mouse fetuses as previously described by Dawson, T. M., et al, Ann. neurol. 30, 843-6 (1991). […] The cells were applied to polyornithine-coated 24-well plates (Sigma, Deisenhofen, Germany). After 4 days, the cells were treated with cytosine arabinoside (5 μM) for a further four days in order to inhibit the proliferation of non-neural cells. The cell cultures were then kept at 8% CO2 and 37° C. in MEM, 10% horse serum, 25 mM glucose and 2 mM L-glutamine in a humidity incubator. The neurons were allowed to mature in culture for at least 8 days before being used for the experiment. The proportion of glial cells in the culture was determined using an antibody directed against glial fibrillary acidic protein (GFAP) to be less than 10%.
as §1, §2
Cortical neuronal cells were treated with increasing doses of GD3. […]

CCCCCCCCCC(=O)N[C@H](CN1CCOCC1)[C@H](O)c1ccccc1 [D-PDMP, D-threo-1-phenyl-2-decanoylamino-3-morpholino-1-propanol]
increase in GD3 on the ischemic side compared with the non-ischemic side [1]: 10% | reduction in the lesion caused by stroke compared with untreated ischemic animals (focal cerebral ischemia): 90%

GD3 synthase antisense oligodeoxynucleotides: antisense oligodeoxynucleotides against GD3 synthase (SEQ ID NO:2) (antisense CAGTACAGCCATGGCCCCTCT; DNA, backbone and methylation of C not given here)
mortality, % of the level in cultures treated with randomly arranged sequence (primary neurons [2]): 50% | accumulation of GD3, % of controls (GD3 synthase): 55%

II^3(NeuAc-α-2,8-NeuAc)LacCer [GD3]
specific neuronal death (primary neurons [3]): up to 80%
